Data reported in patent US20030207813A1, “Retroviral protease inhibitor combinations” (priority 1995, published 2003).

Key:
Format in all cases: cell-based, HIV-1
NL4(R8Q,M46I) = test: Viral isolate resistance assay per Markowitz et al., NL4(R8Q,M46I); conditions: Human immunodeficiency virus 1, read-out: Virus Isolate (EC50 nM) NL4(R8O, M46I)
Text: (§1) RF represents the HIV-1 strain HIV-LRF and RFR represents a mixture of resistant strains obtained by selection of RF against the compound of Example 1. RFR comprises a mixture of viral strains having protease genotypes of G48V (14/40 clones); G48V, V82A (18/40 clones); G48V, L90S (2/40 clones); G48V, 154T, V82A (1/40 clones); G48M (1/40 clones); G48V, Q61H (1/40 clones); V13I, G48V (1/40 clones); G48V, F53L, V82A (1/40 clones); and G48V, V82A, C95Y (1/40 clones). RFR2 represents a mixture of resistant strains obtained by cloning RFR by three rounds of growth at limiting dilution. RFR2 comprises a mixture of viral strains having protease genotypes of G48V, V82A (13/15 clones); G17E, G48V, V82A (1/15 clones); and G48V, V82A, N37D, N88D (1/15 clones). RFRR represents a mixture of resistant strains obtained by selection of RF against the compounds of Examples 1 and 2 and then cloning by three rounds of growth at limiting dilution. RFRR comprises a mixture of viral strains having protease genotypes of G48V, 154T, L63P, V82A (7/9 clones); G48V, 154T, L63P, V82A, N88S (1/9 clones); and G48V, 154T, L63P, G73M, V82A (1/9 clones). SF162 represents the HIV-1 strain SF-162 and SF162R represents a mixture of resistant strains obtained by selection of SF162 against the compound of Example 1. SF162R comprises a mixture of viral strains having protease genotypes of M461, F53L, L63P, A71V, N88D (2/3 clones); and M46I, F53L, L63P, A71V, N88D, Q92R (1/3 clones). 89-959 represents the HIV-1 strain 89-959 and 89-959R represents a mixture of resistant strains obtained by selection of 89-959 against the compound of Example 2. 89-959R comprises a mixture of viral strains having protease genotypes of N88S (4/5 clones); and D25N, T26A, D30N, D37N, R41K, G73D, R87K, N88S (1/4 clones). NL4 represents the HIV-1 strain HIV-1NL4-3. NL4(G48V) represents a strain having a synthetically generated site-directed mutation in the protease from glycine to valine at amino acid position number 48. […]

NL4(538/P24-AG) = test: Viral isolate resistance assay per Markowitz et al., NL4(538/P24-AG); conditions: Human immunodeficiency virus 1; Table 10; NL4(P22-538) selected against Example 12, 24 passages
Text: as §1, with “48. NL4(I84V) represents a strain having a synthetically generated site-directed mutation in the protease from isoleucine to valine at amino acid position number 84. NL4(R8Q,M46I) represents a strain having synthetically generated site-directed mutations in the protease from arginine to glutamine at amino acid position number 8 and methionine to isoleucine at amino acid position number 46. NL4(P22-538) represents a mixture of resistant strains obtained by selection of HIV-1NL4-3 against the compound of Example 10 after 22 passages comprising protease genotypes M46I, L63P, A71V, V82F, I84V (4/10); M46I, L63P, V82F, I84V (3/10); and M46I, A71V, V82F, I84V (3/10). NL4(P37-538) represents resistant strains obtained by selection of HIV-1NL4-3 against the compound of Example 10 after 37 passages comprising protease genotype M46I, L63P, A71V, 184A. NL4(538/524) represents resistant strains obtained by selection of NL4(P22-538) against the compound of Example 5 after 24 passages comprising protease genotype M46I, L63P, A71V, 184A. NL4(538/P7-AG) represents a mixture of resistant strains obtained by selection of NL4(P22-538) against the compound of Example 12 after 7 passages comprising protease genotypes M46I, L63P, A71V, 184A; and V321, V82I. NL4(538/P24-AG) represents resistant strains obtained by selection of NL4(P22-538) against the compound of Example 12 after 24 passages comprising protease genotype M46I, L63P, A71V, 184A.” for “48.”

NL4(P22-538) = test: Viral isolate resistance assay per Markowitz et al., NL4(P22-538); conditions: Human immunodeficiency virus 1; Table 9; selected against Example 10, 22 passages; read-out: Virus Isolate (EC50 nM) NL4(P22-538)
Text: as §1, with “48. NL4(I84V) represents a strain having a synthetically generated site-directed mutation in the protease from isoleucine to valine at amino acid position number 84. NL4(R8Q,M46I) represents a strain having synthetically generated site-directed mutations in the protease from arginine to glutamine at amino acid position number 8 and methionine to isoleucine at amino acid position number 46. NL4(P22-538) represents a mixture of resistant strains obtained by selection of HIV-1NL4-3 against the compound of Example 10 after 22 passages comprising protease genotypes M46I, L63P, A71V, V82F, I84V (4/10); M46I, L63P, V82F, I84V (3/10); and M46I, A71V, V82F, I84V (3/10). NL4(P37-538) represents resistant strains obtained by selection of HIV-1NL4-3 against the compound of Example 10 after 37 passages comprising protease genotype M46I, L63P, A71V, 184A. NL4(538/524) represents resistant strains obtained by selection of NL4(P22-538) against the compound of Example 5 after 24 passages comprising protease genotype M46I, L63P, A71V, 184A. NL4(538/P7-AG) represents a mixture of resistant strains obtained by selection of NL4(P22-538) against the compound of Example 12 after 7 passages comprising protease genotypes M46I, L63P, A71V, 184A; and V321, V82I. NL4(538/P24-AG) represents resistant strains obtained by selection of NL4(P22-538) against the compound of Example 12 after 24 passages comprising protease genotype M46I, L63P, A71V, 184A.” for “48.”

NLA(P19-003) = test: Viral isolate resistance assay per Markowitz et al., NLA(P19-003); conditions: Human immunodeficiency virus 1, read-out: Virus Isolate (EC50 nM) NLA(P19-003)
Text: as §1

NL4(P34-003) = test: Viral isolate resistance assay per Markowitz et al., NL4(P34-003); conditions: Human immunodeficiency virus 1; Table 11; selected against Example 9, 34 passages
Text: as §1

SMILES | EC50 (NL4(R8Q,M46I)) [nM] | EC50 (NL4(538/P24-AG)) [nM] | EC50 (NL4(P22-538)) [nM] | EC50 (NLA(P19-003)) [nM] | EC50 (NL4(P34-003)) [nM]
CC(C)(C)NC(=O)[C@@H]1CN(Cc2cccnc2)CCN1C[C@@H](O)C[C@@H](Cc1ccccc1)C(=O)N[C@H]1c2ccccc2C[C@H]1O [Example 5, N-(2(R)-Hydroxy-1(S)-indanyl)-2(R)-phenylmethyl-4(S)-hydroxy-5-(1-(4-(3-pyridylmethyl)-2(S)-N′-(t-butylcarboxamido)-piperazinyl))-pentaneamide] | 240 | 6400 | 800 | 240 | 400
CC(C)(C)NC(=O)[C@@H]1CC2CCCC[C@@H]2CN1C[C@@H](O)[C@H](Cc1ccccc1)NC(=O)[C@H](CC(N)=O)NC(=O)c1ccc2ccccc2n1 (stereo in doubt) [Example 6, N-tert-Butyl decahydro-2-[2(R)-hydroxy-4-phenyl-3(S)-[[N-(2-quinolylcarbonyl)-L-asparaginyl]amino]butyl]-(4aR,8aS)-isoquinoline-3(S)-carboxamide] | – | 2400 | 150 | – | –
